Experimental data as given in US20260078103A1, “ISOQUINOLONES AS PI3K INHIBITORS” (OnKure, Inc., priority 2022, published 2026).

What was measured:
Assay type in all cases: cell-based
[1] = tested on: phosphorylation of AKT (pAKT) in T47D cells expressing mutant PI3Ka (H1047R); assay: In vitro cell pAKT (Ser473) HTRF, T47D cells; conditions: Homo sapiens, T47D, 6 h, cellular pAKT, T47D cells, mutant PI3Ka (H1047R), 6 hours; read-out: Avg T-47D IC50
How it was run: (§1)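 T47D cells (RPMI, 10% FBS, 0.2 units/mL insulin) or SKBR3 cells (McCoy's 5a, 10% FBS) were seeded onto 10-point compound dilutions and incubated 6 h at 37 °C. After lysis, pAKT was detected overnight by HTRF (Eu cryptate/d2). IC50 was fitted from % inhibition relative to 0.1% DMSO and 10 uM alpelisib controls.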

[2] = tested on: phosphorylation of AKT (pAKT) in SKBR3 cells express WT PI3Ka; assay: In vitro cell pAKT (Ser473) HTRF, SKBR3 cells; conditions: Homo sapiens, SK-BR-3, 6 h, cellular pAKT
How it was run: as §1

[3] = tested on: T47D cells expressing mutant PI3Ka (H1047R); assay: In vitro cell proliferation, T47D cells (CellTiter-Glo); conditions: Homo sapiens, T47D, 72 h, inhibition of proliferation, read-out: Avg T-47D EC50
How it was run: (§2)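 T47D cells in RPMI/10% FBS/insulin (0.2 units/mL) or SKBR3 in McCoys 5a/10% FBS, 1,500 cells/well, grown 72 h at 37 °C with 10-point compound dilutions. CellTiter-Glo luminescence; % inhibition normalised to 0.1% DMSO and 10 uM Alpelisib, EC50 from four-parameter curve fit.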

[4] = tested on: SKBR3 cells express WT PI3Ka; assay: In vitro cell proliferation, SKBR3 cells (CellTiter-Glo); conditions: Homo sapiens, SK-BR-3, 72 h, inhibition of proliferation
How it was run: as §2

| Structure (SMILES) | IC50 [1] | IC50 [2] | EC50 [3] | EC50 [4] |
| --- | --- | --- | --- | --- |
| Cc1cc([C@@H](C)Nc2ccccc2C(=O)O)c2cc(OCc3ccc(C)nc3)n(C)c(=O)c2c1 [Example 334] | 1 to 500 nM | > 15000 nM | 1 to 500 nM | > 15000 nM |
| Cc1cc([C@@H](C)Nc2ccccc2C(=O)O)c2cc(OCc3ccccn3)n(C)c(=O)c2c1 [Example 335] | 1 to 500 nM | > 15000 nM | 500 to 2000 nM | > 15000 nM |
| Cc1cc([C@@H](C)Nc2ccc(Cl)nc2C(=O)O)c2cc(N3CCN(CC(F)(F)F)CC3)n(C)c(=O)c2c1 [Example 336] | 1 to 500 nM | 2000 to 15000 nM | 1 to 500 nM | 2000 to 15000 nM |
| CC(C)c1ncc(-c2cc3c([C@@H](C)Nc4ccccc4C(=O)O)cc(Cl)cc3c(=O)n2C)cn1 [Example 337] | 1 to 500 nM | > 15000 nM | 1 to 500 nM | > 15000 nM |
| Cc1cc([C@@H](C)Nc2ccccc2C(=O)O)c2cc(-c3cccc(C(F)F)n3)n(C)c(=O)c2c1 [Example 338] | 1 to 500 nM | > 15000 nM | 1 to 500 nM | 2000 to 15000 nM |
| Cc1cc([C@@H](C)Nc2ccccc2C(=O)O)c2cc(OC3CC3)n(C)c(=O)c2c1 [Example 339] | 1 to 500 nM | > 15000 nM | 500 to 2000 nM | > 15000 nM |
| Cc1cc([C@@H](C)Nc2ccccc2C(=O)O)c2cc(N3CCN(c4nccs4)CC3)n(C)c(=O)c2c1 [Example 340] | 1 to 500 nM | 2000 to 15000 nM | 1 to 500 nM | > 15000 nM |
| Cc1cc([C@@H](C)Nc2ccccc2C(=O)O)c2cc(-c3cnc(C(F)F)nc3)n(C)c(=O)c2c1 [Example 341] | 1 to 500 nM | > 15000 nM | 1 to 500 nM | > 15000 nM |
| Cc1cc([C@@H](C)Nc2ccccc2C(=O)O)c2cc(OCc3ccnc(C)c3)n(C)c(=O)c2c1 [Example 342] | 1 to 500 nM | > 15000 nM | 1 to 500 nM | > 15000 nM |
| Cc1cc([C@@H](C)Nc2cccc(F)c2C(=O)O)c2cc(N3CCN(c4ccc(C)nc4C)CC3)n(C)c(=O)c2c1 [Example 343] | 1 to 500 nM | 2000 to 15000 nM | 1 to 500 nM | 2000 to 15000 nM |

Other lines, results leading:

| IC50 [1] | IC50 [2] | EC50 [3] | EC50 [4] | Structure (SMILES) |
| --- | --- | --- | --- | --- |
| 1 to 500 nM | > 15000 nM | 1 to 500 nM | > 15000 nM | C[C@@H](Nc1ccccc1C(=O)O)c1cc(F)cc2c(=O)n(C)c(-c3cnc(C4CC4)s3)cc12 [Example 344] |
| 1 to 500 nM | > 15000 nM | 1 to 500 nM | > 15000 nM | C[C@@H](Nc1ccccc1C(=O)O)c1cc(F)cc2c(=O)n(C)c(-c3cnc(OC4CC4)s3)cc12 [Example 345] |
| 1 to 500 nM | > 15000 nM | 1 to 500 nM | > 15000 nM | COC(C)(C)c1ncc(-c2cc3c([C@@H](C)Nc4cccc(F)c4C(=O)O)cc(C)cc3c(=O)n2C)cc1F [Example 346] |
| 1 to 500 nM | > 15000 nM | 1 to 500 nM | > 15000 nM | CCOc1ncc(-c2cc3c([C@@H](C)Nc4cccc(F)c4C(=O)O)cc(C)cc3c(=O)n2C)s1 [Example 347] |
| 1 to 500 nM | > 15000 nM | 1 to 500 nM | > 15000 nM | Cc1cc([C@@H](C)Nc2ccccc2C(=O)O)c2cc(-c3cnc(CC(F)(F)F)nc3)n(C)c(=O)c2c1 [Example 348] |
| 1 to 500 nM | > 15000 nM | 1 to 500 nM | > 15000 nM | CCOc1ncc(-c2cc3c([C@@H](C)Nc4ccccc4C(=O)O)cc(F)cc3c(=O)n2C)s1 [Example 349] |
| 1 to 500 nM | > 15000 nM | 1 to 500 nM | > 15000 nM | CCON1CCN(c2cc3c([C@@H](C)Nc4cccc(F)c4C(=O)O)cc(C)cc3c(=O)n2C)CC1 [Example 350] |
| 1 to 500 nM | > 15000 nM | 1 to 500 nM | > 15000 nM | Cc1cc([C@@H](C)Nc2cccc(F)c2C(=O)O)c2cc(-c3ccc(OC4CC4)nc3)n(C)c(=O)c2c1 [Example 351] |
| 1 to 500 nM | 2000 to 15000 nM | 1 to 500 nM | 2000 to 15000 nM | Cc1cc([C@@H](C)Nc2cccc(F)c2C(=O)O)c2cc(N3CCN(c4ccc(C)nc4)CC3)n(C)c(=O)c2c1 [Example 352] |
| 1 to 500 nM | 500 to 2000 nM | 1 to 500 nM | 2000 to 15000 nM | Cc1ccc(N2CCN(c3cc4c([C@@H](C)Nc5ccccc5C(=O)O)cc(F)cc4c(=O)n3C)CC2)cn1 [Example 353] |
